# Results reported in ChEMBL document CHEMBL5537167, “Rising Star in Immunotherapy: Development and Therapeutic Potential of Small-Molecule Inhibitors Targeting Casitas B Cell Lymphoma-b (Cbl-b)” (J Med Chem, 2024).
# Tests used:
# [1] = system: Panel NCI-60 (60 carcinoma cell lines); experiment: Anti-proliferative activity against human Panel NCI-60 (60 carcinoma cell lines)
# [2] = molecular target: T1, E3 ubiquitin-protein ligase CBL-B (Homo sapiens, UniProt Q13191); experiment: Inhibition of CBL-B (unknown origin) by biochemical assay
# [3] = molecular target: T1, E3 ubiquitin-protein ligase CBL-B; experiment: Inhibition of CBL-B (unknown origin) by FRET assay
# [4] = Metabolic stability in mouse liver microsomes assessed as intrinsic clearance
# [5] = Metabolic stability in human liver microsomes assessed as intrinsic clearance
# [6] = molecular target: T1, E3 ubiquitin-protein ligase CBL-B; experiment: Inhibition of Cbl-b (unknown origin) by Cellular substrate assay
# in vitro = settings: rat, plasma
# [7] = molecular target: T1, E3 ubiquitin-protein ligase CBL-B
# Description: Inhibition of N-terminal biotinylated Avi-tagged Cbl-b (36 to 427 residues) (unknown origin) by SPR assay
# [8] = molecular target: T1, E3 ubiquitin-protein ligase CBL-B; experiment: Inhibition of Cbl-b (unknown origin) using fluorophore-labeled probe by TR-FRET based Cb1-b displacement assay
# [9] = molecular target: T1, E3 ubiquitin-protein ligase CBL-B; experiment: Inhibition of Cbl-b (unknown origin) by TR-FRET assay
# T1 sequence (Q13191 whole entry): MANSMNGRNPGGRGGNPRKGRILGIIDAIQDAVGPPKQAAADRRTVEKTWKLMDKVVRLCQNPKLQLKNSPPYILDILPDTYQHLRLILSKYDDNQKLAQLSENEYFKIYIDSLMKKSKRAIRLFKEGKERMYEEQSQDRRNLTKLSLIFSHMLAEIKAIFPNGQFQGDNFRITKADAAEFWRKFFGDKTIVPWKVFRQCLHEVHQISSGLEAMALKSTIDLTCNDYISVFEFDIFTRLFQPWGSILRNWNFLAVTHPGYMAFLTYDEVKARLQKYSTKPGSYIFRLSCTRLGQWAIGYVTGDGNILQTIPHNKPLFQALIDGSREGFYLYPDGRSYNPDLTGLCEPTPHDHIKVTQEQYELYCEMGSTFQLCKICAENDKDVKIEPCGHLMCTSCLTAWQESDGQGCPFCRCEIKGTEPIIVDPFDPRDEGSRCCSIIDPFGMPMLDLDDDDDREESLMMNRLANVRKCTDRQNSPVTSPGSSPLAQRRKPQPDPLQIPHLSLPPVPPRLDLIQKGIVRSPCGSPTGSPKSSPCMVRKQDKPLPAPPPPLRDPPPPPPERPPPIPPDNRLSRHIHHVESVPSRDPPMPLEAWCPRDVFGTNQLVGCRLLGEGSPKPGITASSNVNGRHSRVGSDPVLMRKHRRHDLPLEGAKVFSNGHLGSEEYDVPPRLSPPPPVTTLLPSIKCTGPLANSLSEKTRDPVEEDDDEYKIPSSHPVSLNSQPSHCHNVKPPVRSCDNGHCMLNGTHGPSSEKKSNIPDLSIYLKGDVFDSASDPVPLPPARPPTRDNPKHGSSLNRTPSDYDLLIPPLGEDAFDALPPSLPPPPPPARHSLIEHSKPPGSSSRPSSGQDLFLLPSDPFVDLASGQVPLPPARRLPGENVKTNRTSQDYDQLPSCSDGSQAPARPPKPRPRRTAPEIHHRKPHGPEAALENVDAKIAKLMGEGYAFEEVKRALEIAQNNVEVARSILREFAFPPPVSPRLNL
structure (smiles),measurement,setting,value
CN(C)c1c2c(c3nc4ccccc4c4c3c1N=C4N1C(=O)c3c4c(nc5ccccc35)C3=C(C(=O)CCN3)C(=[N+](C)C)C41)NCCC2=O (stereo in doubt; (+)-8),GI50,[1],> 30000 nM
same,IC50,[2],9700 nM
C[C@H](Cc1nncn1C)c1cccc(NC(=O)c2ccnc(C3CC3)n2)c1,IC50,[3],88 nM
same,CLint scaled,[4],73 mL/min/kg
same,CLint scaled,[5],30 mL/min/kg
same,IC50,[6],1700 nM
Cc1cc(C(=O)Nc2cccc([C@H](C)Cc3nncn3C)c2)nc(C2CC2)n1,IC50,[3],38 nM
same,CLint scaled,[4],67 mL/min/kg
same,half-life,in vitro,2.72 h
same,IC50,[6],780 nM
Cn1cnnc1CC1(c2cccc(N3Cc4c(cc(CN5CCCC(CC#N)C5)cc4C(F)(F)F)C3=O)c2)COC1 (stereo unspecified),IC50,[7],1 nM
C[C@H]1CCCN(Cc2cc3c(c(C(F)(F)F)c2)CN(c2cccc([C@]4(c5nncn5C)C[C@@H](C)C4)c2)C3=O)C1,IC50,[3],≤ 5 nM
Cc1cc(C(=O)Nc2cccc(C3(Cc4nocc4C)COC3)c2)nc(C2CC2)n1,IC50,[7],< 100 nM
C[C@H](Cc1nncn1C)c1cccc(NC(=O)N2CCOc3cccnc32)c1,IC50,[8],< 100 nM
Cn1cnnc1[C@H](c1cccc(-n2cc3c(C(F)(F)F)cc(CN4CCC[C@@](C)(O)C4)cn3c2=O)c1)C1CCC1,IC50,[9],< 100000 nM
CN(C)c1c2c(c3nc4ccccc4c4c3c1N=C4N1C(=O)c3c4c(nc5ccccc35)C3=C(C(=O)CCN3)C(=[N+](C)C)C41)NCCC2=O (stereo in doubt; (-)-8),IC50,[2],7500 nM
CN(C)c1c2c(c3nc4ccccc4c4c3c1N=C4)NCCC2=O,GI50,[1],180 nM
same,IC50,[2],167000 nM
Cn1cnnc1CC1(c2cccc(-n3cc4c(C(F)(F)F)cc(CN5CCC6(CC6)C5)cn4c3=O)c2)COC1,IC50,[9],< 100000 nM
C[C@H](Sc1nncn1C)c1cccc(NC(=O)c2ccnc(C3CC3)n2)c1,IC50,[3],92 nM
C[C@H]1CCCN(Cc2cc3c(c(C(F)(F)F)c2)CN(c2cccc([C@]4(Cc5nncn5C)C[C@@H](C#N)C4)c2)C3=O)C1,IC50,[7],< 1 nM
C[C@@H]1CN(Cc2cc3c(c(C(F)(F)F)c2)CN(c2cccc(C4(c5nncn5C)CC(F)(F)C4)c2)C3=O)CCO1,IC50,[7],≤ 5 nM
Cc1cc(C(=O)Nc2cccc(C3(Cc4nncn4C)COC3)c2)nc(C2CC2)n1,CLint scaled,[4],26 mL/min/kg
same,half-life,in vitro,> 16.7 h
same,CLint scaled,[5],7 mL/min/kg
same,IC50,[6],790 nM
